This is an account of results in patent US8846711B2, “Heterocyclic acrylamides and their use as pharmaceuticals” (Fab Pharma S.A.S., priority 2009, dated 2014).

For the assay, the target named is recombinant S. aureus FabI enzyme (Staphylococcus aureus (strain MRSA252), UniProt Q6GI75). Briefly: FabI inhibition, fluorescence based assay. The conditions noted are these: in vitro. It is filed as biochemical. Here is the method: Compound inhibitory activity of FabI enzyme is measured in vitro by the […] determination using a fluorescence based assay.
The protein FabI from S. aureus is prepared and purified using standard methods for recombinant protein expression after cloning of the gene in a prokaryotic expression vector.
The biochemical activity of the FabI enzyme is assessed using the following method.
The assay buffer “AB” contained 50 mM ADA (N-(2-acetamido)iminodiacetic acid monosodium salt) pH 6.5, 1 mM dithiothreitol, 0.006% Triton-X100 and 50 mM NaCl.
The following components are added in a white polystyrene Costar plate (Ref 3912) up to a final volume of 55.5 μL: 1.5 μL DMSO or inhibitor dissolved in DMSO and 54 μL of a FabI/NADPH/NADP+ mixture in AB. After 60 min of pre-incubation at room temperature, the reaction is started by addition of 5 μL of trans-2-octenoyl N-acetylcysteamine thioester (t-o-NAC) to a final volume of 60.5 μL. This reaction mixture is then composed of 2 nM FabI, 40 μM NADPH (Sigma, N7505), 10 μM NADP+ (Sigma, N5755), 100 μM t-O-NAC and compound at defined concentration. Fluorescence intensity of NADPH (λex=360 nm, […]) is measured immediately after t-O-NAC addition (T0), and approximately 50 min later (T50) by a Fluostar Optima (BMG) so as to achieve ±30% of NADPH conversion. Enzyme activity is calculated by first subtracting TO signal to T50 and then subtracting background signal (FabI=0). Percentages of inhibition are calculated against untreated samples (Inhibitor=0) and IC50 are fitted to a classical Langmuir equilibrium model using XLFIT (IDBS).
Usually IC50 stands for the concentration needed to halve the response being measured. For `CC(Cc1ncccn1)=NOC1CN(C(=O)/C=C/c2cnc3c(c2)CCC(=O)N3)C1` (racemic) [Example 21, 6-{(1E)-3-[3-({[(1E)-1-Methyl-2-pyrimidin-2-ylethylidene]amino}oxy)azetidin-1-yl]-3-oxoprop-1-en-1-yl}-3,4-dihydro-1,8-naphthyridin-2(1H)-one], the IC50 came out at 870 nM. With `O=C1CCc2cc(/C=C/C(=O)N3CCC3)cnc2N1` [Example 1, 6-[(1E)-3-Azetidin-1-yl-3-oxoprop-1-en-1-yl]-3,4-dihydro-1,8-naphthyridin-2(1H)-one], the concentration for half-maximal inhibition (IC50) came out at 11000 nM. The value for `O=C1CCc2cc(/C=C/C(=O)N3CCCC3)cnc2N1` [Example 2, 6-[(1E)-3-Oxo-3-pyrrolidin-1-ylprop-1-en-1-yl]-3,4-dihydro-1,8-naphthyridin-2(1H)-one] was 5500 nM; that for `O=C1CCc2cc(/C=C/C(=O)N3CCCCC3)cnc2N1` [Example 3, 6-[(1E)-3-Oxo-3-piperidin-1-ylprop-1-en-1-yl]-3,4-dihydro-1,8-naphthyridin-2(1H)-one] was 9900 nM; that for `O=C1CCc2cc(/C=C/C(=O)N3CCC(CCO)CC3)cnc2N1` [Example 4, 6-{(1E)-3-[4-(2-Hydroxyethyl)piperidin-1-yl]-3-oxoprop-1-en-1-yl}-3,4-dihydro-1,8-naphthyridin-2(1H)-one] was 5300 nM. Next, `O=C1CCc2cc(/C=C/C(=O)N3CCC(COc4ccc(F)cc4)CC3)cnc2N1` [Example 5, 6-[(1E)-3-{[4-(4-Fluorophenoxy)methyl]piperidin-1-yl}-3-oxoprop-1-en-1-yl]-3,4-dihydro-1,8-naphthyridin-2(1H)-one]: 250 nM. Take `O=C1CCc2cc(/C=C/C(=O)N3CC(Oc4ccccc4)C3)cnc2N1` [Example 6, 6-[(1E)-3-Oxo-3-(3-phenoxyazetidin-1-yl)prop-1-en-1-yl]-3,4-dihydro-1,8-naphthyridin-2(1H)-one]: the IC50 is 1000 nM. Consider `O=C1CCc2cc(/C=C/C(=O)N3CCCC3c3ccccc3)cnc2N1` (stereo not drawn) [Example 7, 6-[(1E)-3-Oxo-3-(2-phenylpyrrolidin-1-yl)prop-1-en-1-yl]-3,4-dihydro-1,8-naphthyridin-2(1H)-one], for which the IC50 was 7100 nM. The value for `O=C1CCc2cc(/C=C/C(=O)N3CCCC(COc4ccc(F)cc4)C3)cnc2N1` (stereo not drawn) [Example 9, 6-[(1E)-3-{[3-(4-Fluorophenoxy)methyl]piperidin-1-yl}-3-oxoprop-1-en-1-yl]-3,4-dihydro-1,8-naphthyridin-2(1H)-one] was 1300 nM; that for `Cc1nc(C2CN(C(=O)/C=C/c3cnc4c(c3)CCC(=O)N4)C2)no1` [Example 11, 6-{(1E)-3-[3-(5-Methyl-1,2,4-oxadiazol-3-yl)azetidin-1-yl]-3-oxoprop-1-en-1-yl}-3,4-dihydro-1,8-naphthyridin-2(1H)-one] was 150 nM. The value for `Cc1nc(C2CCCCN2C(=O)/C=C/c2cnc3c(c2)CCC(=O)N3)no1` (stereo not drawn) [Example 13, 6-{(1E)-3-[2-(5-Methyl-1,2,4-oxadiazol-3-yl)piperidin-1-yl]-3-oxoprop-1-en-1-yl}-3,4-dihydro-1,8-naphthyridin-2(1H)-one] was 4100 nM; that for `O=C1CCc2cc(/C=C/C(=O)N3CCC(O)(c4ccccc4)CC3)cnc2N1` [Example 14, 6-{(1E)-3-[4-Hydroxy-4-phenylpiperidin-1-yl]-3-oxoprop-1-en-1-yl}-3,4-dihydro-1,8-naphthyridin-2(1H)-one] was 340 nM.

In the case of `O=C1CCc2cc(/C=C/C(=O)N3CCC(Oc4cccnc4)C3)cnc2N1` (stereo not drawn) [Example 16, 6-{(1E)-3-Oxo-3-[3-(pyridin-3-yloxy)pyrrolidin-1-yl]prop-1-en-1-yl}-3,4-dihydro-1,8-naphthyridin-2(1H)-one], the IC50 amounted to 930 nM.

On to `O=C1CCc2cc(/C=C/C(=O)N3CC(OCc4ccccc4)C3)cnc2N1` [Example 17, 6-{(1E)-3-[3-(Benzyloxy)azetidin-1-yl]-3-oxoprop-1-en-1-yl}-3,4-dihydro-1,8-naphthyridin-2(1H)-one], for which the IC50 turned out to be 50 nM. The value for `O=C1CCc2cc(/C=C/C(=O)N3CCCC[C@@H]3c3nc4ccccc4o3)cnc2N1` [Example 18, 6-{(1E)-3-[2-(1,3-Benzoxazol-2-yl)piperidin-1-yl]-3-oxoprop-1-en-1-yl}-3,4-dihydro-1,8-naphthyridin-2(1H)-one] was 1800 nM; that for `C=C(C)COC1CN(C(=O)/C=C/c2cnc3c(c2)CCC(=O)N3)C1` [Example 19, 6-[(1E)-3-{3-[(2-Methylprop-2-en-1-yl)oxy]azetidin-1-yl}-3-oxoprop-1-en-1-yl]-3,4-dihydro-1,8-naphthyridin-2(1H)-one] was 170 nM. Next, `O=C1CCc2cc(/C=C/C(=O)N3CC(OCc4nccs4)C3)cnc2N1` [Example 20, 6-{(1E)-3-Oxo-3-[3-(1,3-thiazol-2-ylmethoxy)azetidin-1-yl]prop-1-en-1-yl}-3,4-dihydro-1,8-naphthyridin-2(1H)-one]: 57 nM; `CCCCCS(=O)(=O)C1CN(C(=O)/C=C/c2cnc3c(c2)CCC(=O)N3)C1` [Example 22, 6-{(1E)-3-[3-(Pentylsulfonyl)azetidin-1-yl]-3-oxoprop-1-en-1-yl}-3,4-dihydro-1,8-naphthyridin-2(1H)-one]: 8600 nM; `Nc1ccc(/C=C/C(=O)N2CC(OCc3ccncc3)C2)cn1` [Example 23, 5-{(1E)-3-Oxo-3-[3-(pyridin-4-ylmethoxy)azetidin-1-yl]prop-1-en-1-yl}pyridin-2-amine]: 1800 nM. As for `CC(=O)Nc1ccc(/C=C/C(=O)N2CC(OCc3ccncc3)C2)cn1` [Example 24, N-(5-{(1E)-3-Oxo-3-[3-(pyridin-4-ylmethoxy)azetidin-1-yl]prop-1-en-1-yl}pyridin-2-yl)acetamide], the IC50 was determined as 260 nM. The value for `COC(=O)C1Cc2cc(/C=C/C(=O)N3CCC(COc4ccc(F)cc4)CC3)cnc2NC1=O` (stereo not drawn) [Example 25, Methyl 6-[(1E)-3-{4-[(4-fluorophenoxy)methyl]piperidin-1-yl}-3-oxoprop-1-en-1-yl]-2-oxo-1,2,3,4-tetrahydro-1,8-naphthyridine-3-carboxylate] was 60 nM; that for `NC(=O)C1Cc2cc(/C=C/C(=O)N3CCC(COc4ccc(F)cc4)CC3)cnc2NC1=O` (stereo not drawn) [Example 26, 6-[(1E)-3-{4-[(4-Fluorophenoxy)methyl]piperidin-1-yl}-3-oxoprop-1-en-1-yl]-2-oxo-1,2,3,4-tetrahydro-1,8-naphthyridine-3-carboxamide] was 78 nM; that for `NC(=O)c1cc2cc(/C=C/C(=O)N3CCC(COc4ccc(F)cc4)CC3)cnc2[nH]c1=O` [Example 27, 6-[(1E)-3-{4-[(4-Fluorophenoxy)methyl]piperidin-1-yl}-3-oxoprop-1-en-1-yl]-2-oxo-1,2-dihydro-1,8-naphthyridine-3-carboxamide] was 550 nM.

On to `O=C1Nc2ncc(/C=C/C(=O)N3CCC(COc4ccc(F)cc4)CC3)cc2CC1CO` (stereo not drawn) [Example 28, 3-(Hydroxymethyl)-6-[(1E)-3-{4-[(4-fluorophenoxy)methyl]piperidin-1-yl}-3-oxoprop-1-en-1-yl]-3,4-dihydro-1,8-naphthyridin-2(1H)-one], for which the IC50 amounted to 81 nM.
